pIC50: −log10 of the molar value. Like-named read-outs stand apart in the source and are kept apart here.

Common to all, as to assay type: cell-based
Assay [1] has as its system NSCLC cell lines. Briefly: quantitative PCR of gene expression in 5-aza-dC-treated vs DMSO-treated NSCLC cell lines. On the procedure: (§1) Cells were grown in RPMI 1640 supplemented with 10% fetal bovine serum and 2 mM L-Glutamine Cells were seeded on day 0 at 4000-9000 cells/cm2 and dosed with 1 μM 5-aza-2′-deoxycytidine (5-aza-dC) (SIGMA-ALDRICH Cat No. A3656) or DMSO control (Cat No. D2650) on days 1, 3, and 5. On day 6 cells were washed once in cold PBS and harvested by scraping in Trizol (Invitrogen, Cat No 15596018) and extracted for RNA or flash frozen for later RNA extraction. For induction of EMT, cells were plated at 20000-50000 cells/10 cm2 in complete medium and supplemented with 2 ng/mL human transforming growth factor beta 1 (TGFβ1) (R&D Systems, Cat No 100-B/CF) or PBS control. Media and TGFβ1 were replaced every 3 days, and RNA was extracted at 4-5 weeks following TGFβ1 induction of EMT. Gene expression changes were assessed using Taqman assays for the 20-gene EMT panel (FIG. 1).
To evaluate the role of methylation in regulating expression of the genes associated with select DMRs, quantitative PCR was carried out in a panel of 34 5-aza-2′-deoxycytidine (5-aza-dC) and dimethyl sulfoxide-treated NSCLC cell lines. […] From this group of genes, CLDN7 was selected as a representative marker of EMT and its methylation status was quantified by pyrosequencing in an extended panel of 42 cell lines.
In FIG. 5A, quantitative methylation was determined at 7 CpG sites by PyroMark analysis software using the equation: % methylation=(C peak height×100/C peak height+T peak height). Data are represented as the mean±SD percentage of methylation at 7 CpG sites. In FIG. 5B, relative expression of CLDN7 mRNA was determined using a standard ΔCt method in 42 (n=20 epithelial-like, 19 mesenchymal-like, 3 intermediate) DMSO-treated and 5-aza-dC-treated NSCLC cell lines. Expression values were calculated as a fold change in 5-aza-dC-treated relative to DMSO-treated control cells. Data are normalized to the housekeeping gene GAPDH and represented as the mean of 2 replicates. DMSO, dimethyl sulfoxide; GAPDH, glyceraldehyde-3-phosphate dehydrogenase.

The subject of assay [2] is NSCLC cell lines. Nature of the assay: TGFβ1 induction of EMT, 20-gene EMT expression panel and morphology. As to conditions: 2 cell lines, 2 ng/mL TGFβ1. On the procedure: as §1
2 μl of total RNA was reverse-transcribed to cDNA and pre-amplified in a single reaction using Superscript III/Platinum Taq (Invitrogen) and Pre-amplification reaction mix (Invitrogen). 20 Taqman primer/probe sets selected for the EMT expression panel (FIG. 1) were included in the pre-amplification reaction at a final dilution of 0.05× original Taqman assay concentration (Applied Biosystems). […]
Pre-amplified cDNA was diluted 1.94-fold and then amplified using Taqman Universal PCR MasterMix (Applied Biosystems) on the BioMark BMK-M-96.96 platform (Fluidigm) according to the manufacturer's instructions. […] Two custom-designed reference genes that were previously evaluated for their expression stability across multiple cell lines, fresh-frozen tissue samples, and FFPE tissue samples, AL-1377271 and VPS-33B, were included in the expression panel. A mean of the Ct values for the two reference genes was calculated for each sample, and expression levels of EMT target genes were determined using the delta Ct (dCt) method as follows: Mean Ct (Target Gene)−Mean Ct (Reference Genes). […]

Assay [3] deals with NSCLC cell lines. Briefly: erlotinib IC50 determination, Celltiter-Glo Luminescent Cell Viability Assay. Particulars: for pIC50: read-out: erlotinib sensitivity (IC50 class). The method, then:
For erlotinib IC50 determination, cells were plated in quadruplicate at 3×10^2 cells per well in 384-well plates in RPMI containing 0.5% FBS (assay medium) and incubated overnight. 24 hours later, cells were treated with assay medium containing 3 nM TGFα and erlotinib at a dose range of 10 μM-1 pM final concentration. After 72 hrs, cell viability was measured using the Celltiter-Glo Luminescent Cell Viability Assay (Promega). The concentration of erlotinib resulting in 50% inhibition of cell viability was calculated from a 4-parameter curve analysis and was determined from a minimum of two experiments.
For orientation: In ATP-based viability assays light output follows the ATP content of the culture.

Take `Nc1ncn([C@H]2C[C@H](O)[C@@H](CO)O2)c(=O)n1` [5-aza-dC, 5-aza-2′-deoxycytidine]: in assay [1] (majority of the epithelial-like cell lines, 1 μM 5-aza-dC), the “induction of CLDN7 expression” value is “not induced further”. Also, the “induction of GRHL2, ESRP1, and CLDN7 transcripts” value in assay [1] (mesenchymal-like versus epithelial-like lines, panel of 34 NSCLC cell lines) is listed as “significant induction”. In addition, in assay [1] (nearly all mesenchymal-like lines, 1 μM 5-aza-dC, normalized to GAPDH), the “induction of CLDN7 expression, fold change in 5-aza-dC-treated relative to DMSO-treated control cells” value is over 10 fold.

As to “TGFβ1: human transforming growth factor beta 1 (R&D Systems), used for induction of EMT”, in assay [2], the morphologic changes result was “induced morphologic changes associated with an EMT”. In addition, in assay [2] (20-gene EMT panel), the “expression of genes associated with a mesenchymal phenotype” value is reported as “upregulated” and the “expression of genes associated with an epithelial phenotype” value is recorded as “downregulated”.

In general, pIC50 refers to −log10 of the IC50, conventionally taken in molar units. With `C#Cc1cccc(Nc2ncnc3cc(OCCOC)c(OCCOC)cc23)c1` [erlotinib, [6,7-bis(2-methoxyethoxy)-4-quinazolin-4-yl]-(3-ethynylphenyl) amine], the pIC50 is at least 5.70 in assay [3] (6 EGFR-mutant NSCLC cell lines); at least 5.70 in assay [3] (72 h, RERF-LC-MS cell line, 72 hrs, 3 nM TGFα); at least 5.70 in assay [3] (Homo sapiens, NCI-H838, 72 h, H838 cell line, 72 hrs, 3 nM TGFα); at least 5.70 in assay [3] (Homo sapiens, NCI-H2030, 72 h, H2030 cell line, 72 hrs, 3 nM TGFα); at least 5.70 in assay [3] (Homo sapiens, SK-MES-1, 72 h, SK-MES-1 cell line, 72 hrs, 3 nM TGFα); at most 5.10 in assay [3] (nearly all mesenchymal-like lines). Besides, the erlotinib sensitivity result in assay [3] (H1993, MET amplification) was “resistance”; in assay [3] (epithelial-like line H1975, T790M mutation in EGFR), “resistance”.

These data come from US20130084287A1, “DIAGNOSTIC MARKERS” (GENENTECH, INC., priority 2011, published 2013).
